# Source: ChEMBL document CHEMBL4130462, “Natural isoflavone biochanin A as a template for the design of new and potent 3-phenylquinolone efflux inhibitors against Mycobacterium avium” (Eur J Med Chem, 2017)
# Key:
# Mycobacterium avium [1] = conditions: isolate MAV3
# [2] = system: Mycobacterium avium subsp. avium ATCC 25291
# Mycobacterium avium [3] = conditions: isolate MAV3; remark: listed apart in the source
# [4] = Safety index, ratio of MTC for test compound to MTC for chlorpromazine for cytotoxicity in human monocyte-derived macrophages; type: cell-based, Macrophage cell line
# Mycobacterium avium [5] = conditions: isolate MAV1
# Description: Inhibition of multidrug resistance efflux pump in Mycobacterium avium isolate MAV1 assessed as potentiation of ciprofloxacin-induced antibacterial activity by measuring ciprofloxacin MIC at 1/4 MIC incubated for 3 days by MTT assay
# Mycobacterium avium [6] = conditions: 104 mc'2 4
# Mycobacterium avium [7] = conditions: isolate MAV2
# Description: Inhibition of multidrug resistance efflux pump in Mycobacterium avium isolate MAV2 assessed as potentiation of ofloxacin-induced antibacterial activity by measuring ofloxacin MIC at 1/4 MIC incubated for 3 days by MTT assay
# Mycobacterium avium [8] = conditions: 104 mc'2 4; remark: listed apart in the source
# [9] = system: Mycobacterium avium subsp. avium ATCC 25291; remark: listed apart in the source
# Description: Inhibition of multidrug resistance efflux pump in Mycobacterium avium ATCC 25291 assessed as potentiation of clarithromycin -induced antibacterial activity by measuring clarithromycin MIC at 1/4 MIC incubated for 3 days by MTT assay
# Mycobacterium avium [10] = conditions: isolate MAV3; remark: listed apart in the source
# Mycobacterium avium [11] = conditions: in vivo, 72 h
# Description: Antimycobacterial activity against Mycobacterium avium 104 mc'2 4 assessed as reduction in bacterial viability incubated for 3 days by MTT assay
# Mycobacterium avium [12] = conditions: 104
# Mycobacterium avium [13] = conditions: isolate MAV3; remark: listed apart in the source
# Mycobacterium avium [14] = conditions: 104; remark: listed apart in the source
# [15] = system: Mycobacterium avium subsp. avium ATCC 25291; remark: listed apart in the source
# Description: Inhibition of multidrug resistance efflux pump in Mycobacterium avium ATCC 25291 assessed as potentiation of ethidium bromide-induced antibacterial activity by measuring ethidium bromide MIC at 1/4 MIC incubated for 3 days by MTT assay
# Mycobacterium avium [16] = conditions: isolate MAV3; remark: listed apart in the source
# Mycobacterium avium [17] = conditions: 104 mc'2 3
# Mycobacterium avium [18] = conditions: 104 mc'2 3; remark: listed apart in the source
# Mycobacterium avium [19] = conditions: isolate MAV4
# Description: Inhibition of multidrug resistance efflux pump in Mycobacterium avium isolate MAV4 assessed as potentiation of clarithromycin -induced antibacterial activity by measuring clarithromycin MIC at 1/2 MIC incubated for 3 days by MTT assay
# Mycobacterium avium [20] = conditions: 104; remark: listed apart in the source
# Mycobacterium avium [21] = conditions: isolate MAV2; remark: listed apart in the source
# Mycobacterium avium [22] = conditions: isolate MAV4; remark: listed apart in the source
# Mycobacterium avium [23] = conditions: isolate MAV4; remark: listed apart in the source
# Mycobacterium avium [24] = experiment: Antimycobacterial activity against Mycobacterium avium isolate MAV3 assessed as reduction in bacterial viability incubated for 3 days by MTT assay; type: organism-based; conditions: 72 h
# Mycobacterium avium [25] = conditions: 104 mc'2 4; remark: listed apart in the source
# Mycobacterium avium [26] = conditions: 104; remark: listed apart in the source
# [27] = Safety index, ratio of CC50 for test compound to CC50 for chlorpromazine for cytotoxicity in human monocyte-derived macrophages; type: cell-based, Macrophage cell line
# Mycobacterium avium [28] = conditions: isolate MAV4; remark: listed apart in the source
# Description: Inhibition of multidrug resistance efflux pump in Mycobacterium avium isolate MAV4 assessed as potentiation of ethidium bromide-induced antibacterial activity by measuring ethidium bromide MIC at 1/4 MIC incubated for 3 days by MTT assay
# Mycobacterium avium [29] = conditions: isolate MAV3; remark: listed apart in the source
# Mycobacterium avium [30] = conditions: 104 mc'2 3; remark: listed apart in the source
# [31] = Cytotoxicity in human monocyte-derived macrophages assessed as reduction in cell viability incubated for 3 days by alamar blue dye based assay; parameters: species or system Macrophage cell line; conditions: for CC50 at 72 h: human monocyte-derived macrophages; for MTC: macrophage cell line, 72 h
# Mycobacterium avium [32] = conditions: isolate MAV2; remark: listed apart in the source
# Description: Inhibition of multidrug resistance efflux pump in Mycobacterium avium isolate MAV2 assessed as potentiation of ofloxacin-induced antibacterial activity by measuring ofloxacin MIC at 1/2 MIC incubated for 3 days by MTT assay
# Mycobacterium avium [33] = experiment: Antimycobacterial activity against Mycobacterium avium isolate MAV2 assessed as reduction in bacterial viability incubated for 3 days by MTT assay; type: organism-based; conditions: 72 h
# Mycobacterium avium [34] = conditions: isolate MAV4; remark: listed apart in the source
# Description: Inhibition of multidrug resistance efflux pump in Mycobacterium avium isolate MAV4 assessed as potentiation of clarithromycin -induced antibacterial activity by measuring clarithromycin MIC at 1/4 MIC incubated for 3 days by MTT assay
# Mycobacterium avium [35] = conditions: isolate MAV2; remark: listed apart in the source
# Mycobacterium avium [36] = conditions: 104; remark: listed apart in the source
# [37] = system: Mycobacterium avium subsp. avium ATCC 25291; remark: listed apart in the source
# Mycobacterium avium [38] = conditions: isolate MAV1; remark: listed apart in the source
# Description: Inhibition of multidrug resistance efflux pump in Mycobacterium avium isolate MAV1 assessed as potentiation of ciprofloxacin-induced antibacterial activity by measuring ciprofloxacin MIC at 1/2 MIC incubated for 3 days by MTT assay (Rvb = 2 ug/ml)
# [39] = system: Mycobacterium avium subsp. avium ATCC 25291; remark: listed apart in the source
# Mycobacterium avium [40] = conditions: 104 mc'2 4; remark: listed apart in the source
# Mycobacterium avium [41] = conditions: 104 mc'2 4; remark: listed apart in the source
# Mycobacterium avium [42] = conditions: isolate MAV4; remark: listed apart in the source
# Mycobacterium avium [43] = experiment: Antimycobacterial activity against Mycobacterium avium isolate MAV4 assessed as reduction in bacterial viability incubated for 3 days by MTT assay; type: organism-based; conditions: 72 h
# Mycobacterium avium [44] = conditions: isolate MAV1; remark: listed apart in the source
# Mycobacterium avium [45] = conditions: isolate MAV3; remark: listed apart in the source
# Mycobacterium avium [46] = experiment: Antimycobacterial activity against Mycobacterium avium ATCC 25291 assessed as reduction in bacterial viability incubated for 3 days by MTT assay; type: organism-based; conditions: mycobacterium avium subsp. avium atcc 25291, 72 h
# Mycobacterium avium [47] = conditions: 104 mc'2 4; remark: listed apart in the source
# Mycobacterium avium [48] = conditions: isolate MAV2; remark: listed apart in the source
# Mycobacterium avium [49] = conditions: 104 mc'2 3; remark: listed apart in the source
# Mycobacterium avium [50] = conditions: 104; remark: listed apart in the source
# Description: Inhibition of multidrug resistance efflux pump in Mycobacterium avium 104 assessed as potentiation of clarithromycin -induced antibacterial activity by measuring clarithromycin MIC at 1/4 MIC incubated for 3 days by MTT assay
# Mycobacterium avium [51] = conditions: isolate MAV2; remark: listed apart in the source
# Mycobacterium avium [52] = conditions: isolate MAV2; remark: listed apart in the source
# Mycobacterium avium [53] = conditions: isolate MAV2; remark: listed apart in the source
# Description: Inhibition of multidrug resistance efflux pump in Mycobacterium avium isolate MAV2 assessed as potentiation of clarithromycin -induced antibacterial activity by measuring clarithromycin MIC at 1/2 MIC incubated for 3 days by MTT assay (Rvb = >1024 ug/ml)
# Mycobacterium avium [54] = conditions: isolate MAV1; remark: listed apart in the source
# Mycobacterium avium [55] = conditions: 104 mc'2 4; remark: listed apart in the source
# Mycobacterium avium [56] = conditions: 104; remark: listed apart in the source
# Mycobacterium avium [57] = conditions: isolate MAV3; remark: listed apart in the source
# [58] = system: Mycobacterium avium subsp. avium ATCC 25291; remark: listed apart in the source
# Description: Inhibition of multidrug resistance efflux pump in Mycobacterium avium ATCC 25291 assessed as potentiation of clarithromycin -induced antibacterial activity by measuring clarithromycin MIC at 1/2 MIC incubated for 3 days by MTT assay
# Mycobacterium avium [59] = conditions: 72 h
# Description: Antimycobacterial activity against Mycobacterium avium 104 assessed as reduction in bacterial viability incubated for 3 days by MTT assay
# Mycobacterium avium [60] = conditions: 104; remark: listed apart in the source
# Mycobacterium avium [61] = conditions: isolate MAV3; remark: listed apart in the source
# [62] = Safety index, ratio of MTC for test compound to MTC for thioridazine for cytotoxicity in human monocyte-derived macrophages; type: cell-based, Macrophage cell line
# Mycobacterium avium [63] = conditions: 104 mc'2 3; remark: listed apart in the source
# Mycobacterium avium [64] = experiment: Antimycobacterial activity against Mycobacterium avium isolate MAV1 assessed as reduction in bacterial viability incubated for 3 days by MTT assay; type: organism-based; conditions: in vitro, 72 h
# Mycobacterium avium [65] = conditions: 104 mc'2 3; remark: listed apart in the source
# Mycobacterium avium [66] = conditions: isolate MAV4; remark: listed apart in the source
compound,measurement,setting,value
CCCOc1ccc(-c2cn(CCN3CCCCCC3)c3ccccc3c2=O)cc1,MIC,Mycobacterium avium [1],0.78 µg/mL
same,MIC,[2],< 0.5 µg/mL
same,MIC,Mycobacterium avium [3],< 4 µg/mL
same,selectivity ratio,[4],2 to 4
same,MIC,Mycobacterium avium [5],0.5 µg/mL
same,MIC,Mycobacterium avium [6],< 4 µg/mL
same,MIC,Mycobacterium avium [7],2 µg/mL
same,MIC,Mycobacterium avium [8],32 µg/mL
same,MIC,[9],8 µg/mL
same,MIC,Mycobacterium avium [10],0.5 µg/mL
same,MIC,Mycobacterium avium [11],256 µg/mL
same,MIC,Mycobacterium avium [12],< 4 µg/mL
same,MIC,Mycobacterium avium [13],32 µg/mL
same,MIC,Mycobacterium avium [14],8 µg/mL
same,MIC,[15],6.25 µg/mL
same,MIC,Mycobacterium avium [16],32 µg/mL
same,MIC,Mycobacterium avium [17],0.78 µg/mL
same,MIC,Mycobacterium avium [18],< 0.125 µg/mL
same,MIC,Mycobacterium avium [19],< 0.0625 µg/mL
same,MIC,Mycobacterium avium [20],< 0.195 µg/mL
same,MIC,Mycobacterium avium [21],1 µg/mL
same,MIC,Mycobacterium avium [22],< 2 µg/mL
same,MIC,Mycobacterium avium [23],< 0.125 µg/mL
same,MIC,Mycobacterium avium [24],128 µg/mL
same,MIC,Mycobacterium avium [25],< 4 µg/mL
same,MIC,Mycobacterium avium [26],< 4 µg/mL
same,selectivity ratio,[27],2 to 4
same,MIC,Mycobacterium avium [28],3.12 µg/mL
same,MIC,Mycobacterium avium [29],1 µg/mL
same,MIC,Mycobacterium avium [30],< 4 µg/mL
same,CC50 at 72 h,[31],50 µM
same,MTC,[31],20 µM
same,MIC,Mycobacterium avium [32],2 µg/mL
same,MIC,Mycobacterium avium [33],128 µg/mL
same,MIC,Mycobacterium avium [34],4 µg/mL
same,MIC,Mycobacterium avium [35],< 4 µg/mL
same,MIC,Mycobacterium avium [36],4 µg/mL
same,MIC,[37],8 µg/mL
same,MIC,Mycobacterium avium [38],< 0.031 µg/mL
same,MIC,[39],< 0.25 µg/mL
same,MIC,Mycobacterium avium [40],1 µg/mL
same,MIC,Mycobacterium avium [41],2 µg/mL
same,MIC,Mycobacterium avium [42],2 µg/mL
same,MIC,Mycobacterium avium [43],256 µg/mL
same,MIC,Mycobacterium avium [44],< 4 µg/mL
same,MIC,Mycobacterium avium [45],16 µg/mL
same,MIC,Mycobacterium avium [46],256 µg/mL
same,MIC,Mycobacterium avium [47],< 0.195 µg/mL
same,MIC,Mycobacterium avium [48],2 µg/mL
same,MIC,Mycobacterium avium [49],< 4 µg/mL
same,MIC,Mycobacterium avium [50],1 µg/mL
same,MIC,Mycobacterium avium [51],256 µg/mL
same,MIC,Mycobacterium avium [52],512 µg/mL
same,MIC,Mycobacterium avium [53],< 4 µg/mL
same,MIC,Mycobacterium avium [54],< 0.195 µg/mL
same,MIC,Mycobacterium avium [55],32 µg/mL
same,MIC,Mycobacterium avium [56],< 4 µg/mL
same,MIC,Mycobacterium avium [57],2 µg/mL
same,MIC,[58],< 0.0625 µg/mL
same,MIC,Mycobacterium avium [59],256 µg/mL
same,MIC,Mycobacterium avium [60],1.56 µg/mL
same,MIC,Mycobacterium avium [61],4 µg/mL
same,selectivity ratio,[62],4 to 6
same,MIC,Mycobacterium avium [63],< 0.125 µg/mL
same,MIC,Mycobacterium avium [64],128 µg/mL
same,MIC,Mycobacterium avium [65],32 µg/mL
same,MIC,Mycobacterium avium [66],8 µg/mL
CSc1ccc2c(c1)N(CCC1CCCCN1C)c1ccccc1S2 (stereo unspecified) [THIORIDAZINE],MIC,Mycobacterium avium [1],12.5 µg/mL
same,MIC,[2],4 µg/mL
same,MIC,Mycobacterium avium [3],64 µg/mL
same,MIC,Mycobacterium avium [5],0.5 µg/mL
same,MIC,Mycobacterium avium [6],256 µg/mL
same,MIC,Mycobacterium avium [7],1 µg/mL
same,MIC,Mycobacterium avium [8],> 512 µg/mL
same,MIC,[9],2 µg/mL
same,MIC,Mycobacterium avium [10],2 µg/mL
same,MIC,Mycobacterium avium [11],30 µg/mL
same,MIC,Mycobacterium avium [12],2 µg/mL
same,MIC,Mycobacterium avium [13],128 µg/mL
same,MIC,Mycobacterium avium [14],256 µg/mL
same,MIC,[15],25 µg/mL
same,MIC,Mycobacterium avium [16],128 µg/mL
same,MIC,Mycobacterium avium [17],12.5 µg/mL
same,MIC,Mycobacterium avium [18],< 0.125 µg/mL
same,MIC,Mycobacterium avium [19],1 µg/mL
same,MIC,Mycobacterium avium [20],6.25 µg/mL
same,MIC,Mycobacterium avium [21],0.25 µg/mL
same,MIC,Mycobacterium avium [22],64 µg/mL
same,MIC,Mycobacterium avium [23],4 µg/mL
same,MIC,Mycobacterium avium [24],30 µg/mL
same,MIC,Mycobacterium avium [25],32 µg/mL
same,MIC,Mycobacterium avium [26],128 µg/mL
same,MIC,Mycobacterium avium [28],25 µg/mL
same,MIC,Mycobacterium avium [29],8 µg/mL
same,MIC,Mycobacterium avium [30],< 4 µg/mL
same,CC50 at 72 h,[31],13.8 µM
same,MTC,[31],2.5 µM
same,MIC,Mycobacterium avium [32],0.5 µg/mL
same,MIC,Mycobacterium avium [33],30 µg/mL
same,MIC,Mycobacterium avium [34],4 µg/mL
same,MIC,Mycobacterium avium [35],128 µg/mL
same,MIC,Mycobacterium avium [36],4 µg/mL
same,MIC,[37],16 µg/mL
same,MIC,Mycobacterium avium [38],< 0.031 µg/mL
same,MIC,[39],8 µg/mL
same,MIC,Mycobacterium avium [40],4 µg/mL
same,MIC,Mycobacterium avium [41],8 µg/mL
same,MIC,Mycobacterium avium [42],8 µg/mL
same,MIC,Mycobacterium avium [43],30 µg/mL
same,MIC,Mycobacterium avium [44],< 4 µg/mL
same,MIC,Mycobacterium avium [45],16 µg/mL
same,MIC,Mycobacterium avium [46],30 µg/mL
same,MIC,Mycobacterium avium [47],0.78 µg/mL
same,MIC,Mycobacterium avium [48],0.25 µg/mL
same,MIC,Mycobacterium avium [49],< 4 µg/mL
same,MIC,Mycobacterium avium [50],4 µg/mL
same,MIC,Mycobacterium avium [51],> 512 µg/mL
same,MIC,Mycobacterium avium [52],> 512 µg/mL
same,MIC,Mycobacterium avium [53],256 µg/mL
same,MIC,Mycobacterium avium [54],< 0.195 µg/mL
same,MIC,Mycobacterium avium [55],> 512 µg/mL
same,MIC,Mycobacterium avium [56],32 µg/mL
same,MIC,Mycobacterium avium [57],4 µg/mL
same,MIC,[58],1 µg/mL
same,MIC,Mycobacterium avium [59],30 µg/mL
same,MIC,Mycobacterium avium [60],12.5 µg/mL
same,MIC,Mycobacterium avium [61],4 µg/mL
same,MIC,Mycobacterium avium [63],< 0.125 µg/mL
same,MIC,Mycobacterium avium [64],30 µg/mL
same,MIC,Mycobacterium avium [65],> 512 µg/mL
same,MIC,Mycobacterium avium [66],256 µg/mL
